Assay results from patent US20200165194A1, “ADDITIVE COMPOSITION FOR CULTURE MEDIUM, ADDITIVE COMPOUND FOR CULTURE MEDIUM, AND METHOD FOR CULTURE OF CELLS OR TISSUE USING SAME” (NISSAN CHEMICAL CORPORATION, priority 2017, published 2020).
Where two headings read alike, the source gives them in different places.

Key:
Assay type in all cases: cell-based
[1] = system: human prostate cancer-derived cell line LNCaP clone FGC; assay: Various human cancer cells-1, 3D culture, WST-8 (Experimental Example 5); conditions: 4 days
Source text: (§1) Various human-derived cancer cells were precultured (single layer culture) in respective media shown below. Human uterus cervix cancer-derived cell line HeLa (manufactured by American Type Culture Collection (hereinafter indicated as ATCC), 10% fetal bovine serum (FBS, manufactured by Corning)-containing Dulbecco's Modified Eagle's Medium (hereinafter abbreviated as DMEM) (manufactured by Wako Pure Chemical Industries, Ltd.)), human malignant melanoma-derived cell line A375 (manufactured by ATCC, 10% FBS-containing DMEM), human epithelial-like cell cancer-derived cell line A431 (manufactured by ATCC, 10% FBS and 1% MEM non-essential amino acid solution (MEM Non-Essential Amino Acids solution (hereinafter abbreviated as NEAA) (manufactured by Wako Pure Chemical Industries, Ltd.))-containing Eagle's Minimum Essential Medium (hereinafter abbreviated as EMEM) (manufactured by Wako Pure Chemical Industries, Ltd.)), human stomach adenocarcinoma-derived cell line AGS (manufactured by DS PHARMA BIO MEDICAL, 10% FBS-containing Ham's F-12 (manufactured by Wako Pure Chemical Industries, Ltd.)), human prostate cancer-derived cell line LNCaP clone FGC (manufactured by ATCC, 10% FBS-containing RPMI1640 (manufactured by Wako Pure Chemical Industries, Ltd.)), human colon adenocarcinoma-derived cell line HCT116 (manufactured by DS PHARMA BIO MEDICAL, 10% FBS-containing McCoy's 5A Medium (manufactured by Sigma-Aldrich)), human alveolar basal epithelial adenocarcinoma-derived cell line A549 (manufactured by DS PHARMA BIO MEDICAL, 10% FBS-containing DMEM), human prostate cancer-derived cell DU145 (manufactured by ATCC, 10% FBS-containing EMEM). The above-mentioned cells in the logarithmic growth phase were washed with PBS, a 0.25 w/v % trypsin-1 mmol/L EDTA (ethylenediaminetetraacetic acid) solution (manufactured by Wako Pure Chemical Industries, Ltd.) was added, and adherent cells were detached by incubating at 37° C. for 1-5 min. Each medium was added and the mixture was centrifuged. After resuspension in the same medium, each cell was recovered.
(§2) The aforementioned various cells were suspended in respective deacylated gellan gum-containing or not containing media (deacylated gellan gum concentration was 0.015 w/v %, and 0.020 w/v % for RPMI1640 alone), and seeded in a 96 well low attachment U-bottom plate (manufactured by Corning, deacylated gellan gum-free medium), or a low attachment flat bottom plate (manufactured by Corning, deacylated gellan gum-containing medium) at a cell concentration of 1000-12000 cells/135 μL/well (all 3D culture). After static culture overnight in 37° C., 5% CO2 incubator, a DMSO solution of the compound to be used in the present invention was added to each medium at a final concentration of 5 μM or 10 μM. The amount of each compound solution to be added was 15 μL/well. As a control, a DMSO solution dissolved in a medium was added (DMSO final concentration 0.1%). After continuously culturing in an incubator at 37° C., 5% CO2 for 4 days, WST-8 solution (manufactured by DOJINDO LABORATORIES) was added at 15 μL/well, and the mixture was reacted in the same incubator for 1-2 hr. […] When compared with the compound no-addition (control), one showing a value of not more than 119% as -, one showing a value of not less than 120% as ◯, and one showing a value of not less than 150% as ⊚ are shown in the tenth table.

[2] = system: human colon adenocarcinoma-derived cell line HCT116; assay: as above; conditions: 4 days
Source text: as §1, §2

[3] = system: human alveolar basal epithelial adenocarcinoma-derived cell line A549; assay: as above; conditions: 4 days; for viability at 5 µM / viability at 10 µM: Homo sapiens, A549, 96 h, read-out: number of viable cells, relative value to control (100%)
Source text: as §1, §2

[4] = system: human uterus cervix cancer-derived cell line HeLa; assay: as above; conditions: 4 days
Source text: as §1, §2

[5] = system: Chinese hamster ovary-derived cell line CHO-K1; assay: Animal cell lines, 3D culture, ATP assay (Experimental Example 15); conditions: 4 days; for viability at 5 µM / viability at 10 µM: Cricetulus griseus, CHO-K1, 96 h
[6] = low attachment U-bottom plate (gellan gum-free), 10 μM
[7] = low attachment U-bottom plate (gellan gum-free), 5 μM
[8] = low attachment flat bottom plate (gellan gum medium), 5 μM
[9] = low attachment flat bottom plate (gellan gum medium), 10 μM
[10] = CHO-K1, low attachment flat bottom plate (deacylated gellan gum-containing medium), 5 μM
[11] = CHO-K1, low attachment flat bottom plate (deacylated gellan gum-containing medium), 10 μM
[12] = CHO-K1, low attachment U-bottom plate, 5 μM, read-out: number of viable cells (RLU), relative value to control (100%)
[13] = CHO-K1, low attachment U-bottom plate, 10 μM, read-out: number of viable cells (RLU), relative value to control (100%)
[14] = CHO-K1, low attachment flat bottom plate (deacylated gellan gum-containing medium), 5 μM, read-out: number of viable cells (RLU), relative value to control (100%)
[15] = CHO-K1, low attachment flat bottom plate (deacylated gellan gum-containing medium), 10 μM, read-out: number of viable cells (RLU), relative value to control (100%)

For CC/C(=N\NC(=O)Nc1ccccc1)c1ccc(O)c(C)c1O [k-1:H-10], the viability at 5 µM ([1]; Homo sapiens, LNCaP-Clone-FGC, 96 h, low attachment U-bottom plate (gellan gum-free), 5 μM, read-out: number of viable cells, relative value to control (100%)) was 120 to 150%, the viability at 5 µM ([1]; Homo sapiens, LNCaP-Clone-FGC, 96 h, low attachment flat bottom plate (gellan gum medium), 5 μM, read-out: number of viable cells, relative value to control (100%)) was < 119% and the viability at 10 µM ([1]; Homo sapiens, LNCaP-Clone-FGC, 96 h, low attachment flat bottom plate (gellan gum medium), 10 μM, read-out: number of viable cells, relative value to control (100%)) was < 119%. The “number of viable cells, relative value to control (100%)” value [1, 6] was “⊙”, the viability at 5 µM ([2]; Homo sapiens, HCT-116, 96 h, low attachment U-bottom plate (gellan gum-free), 5 μM, read-out: number of viable cells, relative value to control (100%)) was < 119% and the viability at 10 µM ([2]; Homo sapiens, HCT-116, 96 h, low attachment U-bottom plate (gellan gum-free), 10 μM, read-out: number of viable cells, relative value to control (100%)) was < 119%. For the same molecule, the viability at 5 µM [3, 7] was < 119%, the viability at 10 µM [3, 6] was < 119% and the viability at 5 µM [3, 8] was 120 to 150%. The viability at 10 µM [3, 9] was 120 to 150%, the viability at 5 µM ([4]; Homo sapiens, 96 h, low attachment U-bottom plate (gellan gum-free), 5 μM, read-out: number of viable cells, relative value to control (100%)) was < 119% and the viability at 10 µM ([4]; Homo sapiens, 96 h, low attachment U-bottom plate (gellan gum-free), 10 μM, read-out: number of viable cells, relative value to control (100%)) was < 119%.
With CCC(=NNC(=O)C(CC)Nc1ccccc1)c1ccc(O)c(C)c1O (centres unmarked) [k-1:H-7] the “number of viable cells (RLU), relative value to control (100%)” value [5, 10] was “◯ (one showing a value of not less than 120% as ◯)”, the “number of viable cells, relative value to control (100%)” value [1, 7] was “⊙” and the “number of viable cells, relative value to control (100%)” value [1, 6] was “◯ (one showing a value of not less than 120% as ◯)”. The “number of viable cells, relative value to control (100%)” value [2, 6] was “◯ (one showing a value of not less than 120% as ◯)”, the “number of viable cells, relative value to control (100%)” value [2, 8] was “◯ (one showing a value of not less than 120% as ◯)” and the “number of viable cells, relative value to control (100%)” value [2, 9] was “⊙”. For the same molecule, the “number of viable cells, relative value to control (100%)” value [3, 6] was “◯ (one showing a value of not less than 120% as ◯)”, the “number of viable cells, relative value to control (100%)” value [3, 8] was “⊙” and the “number of viable cells, relative value to control (100%)” value [3, 9] was “⊙”. For the same molecule, the “number of viable cells, relative value to control (100%)” value [4, 9] was “◯ (one showing a value of not less than 120% as ◯)”.
In the case of CC/C(=N\NC(=O)NCc1cccc(O)c1)c1ccc(O)c(C)c1O [k-1:J-1], the “number of viable cells (RLU), relative value to control (100%)” value [5, 11] is reported as “⊙”, the viability at 5 µM ([5]; read-out: number of viable cells (RLU), relative value to control (100%), CHO-K1, low attachment U-bottom plate, 5 μM) is reported as < 119% and the viability at 10 µM ([5]; read-out: number of viable cells (RLU), relative value to control (100%), CHO-K1, low attachment U-bottom plate, 10 μM) is reported as < 119%. For the same molecule, the viability at 5 µM ([5]; read-out: number of viable cells (RLU), relative value to control (100%), CHO-K1, low attachment flat bottom plate (deacylated gellan gum-containing medium), 5 μM) was 120 to 150%.
CC/C(=N\NC(=O)C(C)Nc1ccccc1)c1ccc(O)c(C)c1O (centres unmarked) [k-1:B-1] was tested, and the viability at 5 µM [5, 12] was < 119%, the viability at 10 µM [5, 13] was < 119% and the viability at 5 µM [5, 14] was 120 to 150%. For the same molecule, the viability at 10 µM [5, 15] was < 119%.
CC/C(=N\NC(=O)NCc1ccccc1)c1ccc(O)c(C)c1O [k-1:I-1] was tested, and the viability at 5 µM [5, 12] was < 119%, the viability at 10 µM [5, 13] was < 119% and the viability at 5 µM [5, 14] was < 119%. For the same molecule, the viability at 10 µM [5, 15] was < 119%.
In the case of CC/C(=N\NC(=O)CNc1cccc(O)c1)c1ccc(O)c(C)c1O [k-1:D-1], the “number of viable cells (RLU), relative value to control (100%)” value [5, 10] is reported as “⊙”, the “number of viable cells (RLU), relative value to control (100%)” value [5, 11] is reported as “⊙” and the viability at 5 µM [5, 12] is reported as < 119%. The viability at 10 µM [5, 13] was < 119%.
